# Source: patent US10874743B2, “IRAK degraders and uses thereof” (Kymera Therapeutics, Inc., priority 2017, dated 2020)
# Biological target: T1, IRAK4 (Homo sapiens, UniProt Q9NWZ3)
# T1 sequence (Q9NWZ3 1-460): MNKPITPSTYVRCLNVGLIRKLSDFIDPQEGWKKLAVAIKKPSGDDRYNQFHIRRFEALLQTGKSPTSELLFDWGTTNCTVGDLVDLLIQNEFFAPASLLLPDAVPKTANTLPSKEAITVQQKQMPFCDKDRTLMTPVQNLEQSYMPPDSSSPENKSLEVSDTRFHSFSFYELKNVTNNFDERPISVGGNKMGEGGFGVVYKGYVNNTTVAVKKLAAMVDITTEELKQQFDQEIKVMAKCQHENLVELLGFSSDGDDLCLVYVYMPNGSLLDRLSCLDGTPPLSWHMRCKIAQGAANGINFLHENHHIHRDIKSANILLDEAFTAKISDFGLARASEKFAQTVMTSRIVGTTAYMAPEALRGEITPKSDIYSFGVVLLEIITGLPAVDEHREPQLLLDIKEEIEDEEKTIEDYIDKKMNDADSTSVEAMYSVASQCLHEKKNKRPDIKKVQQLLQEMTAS
# Test: OCI-LY-10 degradation assay (western blot, % IRAK4 degraded after 4 hours)
# Format: cell-based
# Parameters: endogenous in cells; host or cells: OCI-LY10
# Settings: OCI-LY10 cells, 4 hours; for OCI-LY10 % IRAK4 Degradation (0.01 uM): 0.01 uM compound; for OCI-LY10 % IRAK4 Degradation (0.1 uM): 0.1 uM compound; for OCI-LY10 % IRAK4 Degradation (1 uM): 1 uM compound
# In short: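 OCI-LY10 cells (RPMI-1640, 20% FBS, 55 μM 2-ME) treated with compound at 0.003-10 μM final for 4 h at 37° C, then lysed in RIPA buffer. IRAK4 level read by fluorescent western blot (20-25 μg protein) and binned as % degraded: A >50%, B >20-50%, C <20%.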
SMILES,OCI-LY10 % IRAK4 Degradation (0.01 uM),OCI-LY10 % IRAK4 Degradation (0.1 uM),OCI-LY10 % IRAK4 Degradation (1 uM)
O=C1CCC(N2C(=O)c3cccc(NCCCCCNCCNC(=O)c4ccc(-n5cc(NC(=O)c6coc(-c7ccnc(NCC8CC8)c7)n6)c(C(F)F)n5)cc4)c3C2=O)C(=O)N1 (stereo not drawn) [I-245],C (<20% degradation),B (>20-50% degradation),A (>50% degradation)
O=C1CCC(N2C(=O)c3cccc(NCCOCCOCCNC(=O)c4ccc(-n5cc(NC(=O)c6coc(-c7ccnc(NCC8CC8)c7)n6)c(C(F)F)n5)cc4)c3C2=O)C(=O)N1 (stereo not drawn) [I-246],C (<20% degradation),A (>50% degradation),A (>50% degradation)
O=C1CCC(N2C(=O)c3cccc(NCCOCCN4CCO[C@@H](CNC(=O)c5ccc(-n6cc(NC(=O)c7coc(-c8ccnc(NCC9CC9)c8)n7)c(C(F)F)n6)cc5)C4)c3C2=O)C(=O)N1 (stereo partly drawn) [I-247],B (>20-50% degradation),A (>50% degradation),A (>50% degradation)
Cn1c(=O)n(C2CCC(=O)NC2=O)c2ccc(CCCOCCOCCNC(=O)c3ccc(-n4cc(NC(=O)c5coc(-c6ccnc(NCC(F)(F)F)c6)n5)c(C(N)=O)n4)cc3)cc21 (stereo not drawn) [I-248],B (>20-50% degradation),A (>50% degradation),A (>50% degradation)
Cn1c(=O)n(C2CCC(=O)NC2=O)c2cccc(CCCOCCOCCNC(=O)c3ccc(-n4cc(NC(=O)c5coc(-c6ccnc(NCC(F)(F)F)c6)n5)c(C(N)=O)n4)cc3)c21 (stereo not drawn) [I-249],C (<20% degradation),A (>50% degradation),A (>50% degradation)
O=C1CCC(N2C(=O)c3cccc(NCCOCCN4CCO[C@H](CNC(=O)c5ccc(-n6cc(NC(=O)c7coc(-c8ccnc(NCC9CC9)c8)n7)c(C(F)F)n6)cc5)C4)c3C2=O)C(=O)N1 (stereo partly drawn) [I-250],C (<20% degradation),A (>50% degradation),A (>50% degradation)
O=C1CCC(N2C(=O)c3cccc(NCCOCCOCCOCCOCCn4cc(NC(=O)c5coc(-c6ccnc(NCC7CC7)c6)n5)c(C(F)F)n4)c3C2=O)C(=O)N1 (stereo not drawn) [I-254],C (<20% degradation),C (<20% degradation),B (>20-50% degradation)
O=C1CCC(n2c(=O)oc3c(CCCOCCOCCNC(=O)c4ccc(-n5cc(NC(=O)c6coc(-c7ccnc(NCC(F)(F)F)c7)n6)c(C(F)F)n5)cc4)cccc32)C(=O)N1 (stereo not drawn) [I-256],B (>20-50% degradation),A (>50% degradation),A (>50% degradation)
O=C1CCC(N2C(=O)c3cccc(CCOCCN4CCC(n5cc(NC(=O)c6coc(-c7ccnc(NCC8CC8)c7)n6)c(C(F)F)n5)CC4)c3C2=O)C(=O)N1 (stereo not drawn) [I-257],C (<20% degradation),C (<20% degradation),C (<20% degradation)
O=C1CCC(N2C(=O)c3cccc(CCCN4CCC(n5cc(NC(=O)c6coc(-c7ccnc(NCC8CC8)c7)n6)c(C(F)F)n5)CC4)c3C2=O)C(=O)N1 (stereo not drawn) [I-259],C (<20% degradation),C (<20% degradation),C (<20% degradation)
O=C1CCC(N2C(=O)c3ccc(CCCNC(=O)c4ccc(-n5cc(NC(=O)c6coc(-c7ccncc7)n6)c(C(F)F)n5)cc4)cc3C2=O)C(=O)N1 (stereo not drawn) [I-260],C (<20% degradation),C (<20% degradation),C (<20% degradation)
O=C1CCC(N2C(=O)c3ccc(CCCCCN4CCC(n5cc(NC(=O)c6coc(-c7ccnc(NCC8CC8)c7)n6)c(C(F)F)n5)CC4)cc3C2=O)C(=O)N1 (stereo not drawn) [I-263],C (<20% degradation),C (<20% degradation),C (<20% degradation)
O=C1CCC(N2C(=O)c3ccc(CCCN4CCC(n5cc(NC(=O)c6coc(-c7ccnc(NCC8CC8)c7)n6)c(C(F)F)n5)CC4)cc3C2=O)C(=O)N1 (stereo not drawn) [I-264],C (<20% degradation),C (<20% degradation),C (<20% degradation)
O=C1CCC(N2C(=O)c3cccc(N4CCN(CCOCCOCCOCCNC(=O)c5ccc(-n6cc(NC(=O)c7coc(-c8ccnc(NCC9CC9)c8)n7)c(C(F)F)n6)cc5)CC4)c3C2=O)C(=O)N1 (stereo not drawn) [I-275],C (<20% degradation),B (>20-50% degradation),A (>50% degradation)
O=C1CCC(N2C(=O)c3cccc(NCCOCCN4CCO[C@@H](CNC(=O)c5ccc(-n6cc(NC(=O)c7coc(-c8ccnc(NCC(F)(F)F)c8)n7)c(C(F)F)n6)cc5)C4)c3C2=O)C(=O)N1 (stereo partly drawn) [I-282],C (<20% degradation),C (<20% degradation),C (<20% degradation)

# Next, values leading:
OCI-LY10 % IRAK4 Degradation (0.01 uM),OCI-LY10 % IRAK4 Degradation (0.1 uM),OCI-LY10 % IRAK4 Degradation (1 uM),SMILES
C (<20% degradation),C (<20% degradation),B (>20-50% degradation),CC(=O)O[C@@H]1C[C@@H](C(=O)NCc2ccc(-n3cc(NC(=O)c4coc(-c5ccnc(NCC6CC6)c5)n4)c(C(F)F)n3)cc2)N(C(=O)[C@@H](NC(=O)COCCOCCOCCNc2cccc3c2C(=O)N(C2CCC(=O)NC2=O)C3=O)C(C)(C)C)C1 (stereo partly drawn) [I-285]
B (>20-50% degradation),A (>50% degradation),A (>50% degradation),"NC(=O)c1nn(-c2ccc(COCC3CCCCN3CCOCCNc3cccc4c3C(=O)N(C3CCC(=O)NC3=O)C4=O)cc2)cc1NC(=O)c1coc(-c2ccnc(NCC(F)(F)F)c2)n1 (stereo not drawn) [I-303, N-[3-carbamoyl-1-[4-[[1-[2-[2-[[2-(2,6-dioxo-3-piperidyl)-1,3-dioxo-isoindolin-4-yl]amino]ethoxy]ethyl]-2-piperidyl]methoxymethyl]phenyl]pyrazol-4-yl]-2-[2-(2,2,2-trifluoroethylamino)-4-pyridyl]oxazole-4-carboxamide]"
C (<20% degradation),C (<20% degradation),C (<20% degradation),"NC(=O)c1nn(Cc2cn(CCOCCOCCNc3cccc4c3C(=O)N(C3CCC(=O)NC3=O)C4=O)nn2)cc1NC(=O)c1coc(-c2ccnc(NCC3CC3)c2)n1 (stereo not drawn) [I-304, N-[3-carbamoyl-1-[[1-[2-[2-[2-[[2-(2,6-dioxo-3-piperidyl)-1,3-dioxo-isoindolin-4-yl]amino]ethoxy]ethoxy]ethyl]triazol-4-yl]methyl]pyrazol-4-yl]-2-[2-(cyclopropylmethylamino)-4-pyridyl]oxazole-4-carboxamide]"
C (<20% degradation),B (>20-50% degradation),B (>20-50% degradation),NC(=O)c1nn(-c2ccc(CNCC3CCCCN3CCOCCNc3cccc4c3C(=O)N(C3CCC(=O)NC3=O)C4=O)cc2)cc1NC(=O)c1coc(-c2ccnc(NCC(F)(F)F)c2)n1 (stereo not drawn) [I-306]
C (<20% degradation),C (<20% degradation),C (<20% degradation),O=C1CCC(N2C(=O)c3cccc(NCCNCCOCCNCc4ccc(-n5cc(NC(=O)c6coc(-c7ccnc(NCC8CC8)c7)n6)c(C(F)(F)F)n5)cc4)c3C2=O)C(=O)N1 (stereo not drawn) [I-307]
B (>20-50% degradation),A (>50% degradation),A (>50% degradation),CN(CCOCCOCCCc1ccc2c(c1)C(=O)N(C1CCC(=O)NC1=O)C2=O)Cc1ccc(-n2cc(NC(=O)c3coc(-c4ccncc4)n3)c(C(N)=O)n2)cc1 (stereo not drawn) [I-309]
C (<20% degradation),A (>50% degradation),A (>50% degradation),CN(CCOCCOCCCc1ccc2c(c1)C(=O)N(C1CCC(=O)NC1=O)C2=O)Cc1ccc(-n2cc(NC(=O)c3coc(-c4ccnc(NCC5CC5)c4)n3)c(C(F)F)n2)cc1 (stereo not drawn) [I-310]
C (<20% degradation),A (>50% degradation),A (>50% degradation),NC(=O)c1nn(-c2ccc(CNCCCCCOCCCc3cccc4c3C(=O)N(C3CCC(=O)NC3=O)C4=O)cc2)cc1NC(=O)c1coc(-c2ccnc(NCC3CC3)c2)n1 (stereo not drawn) [I-311]
C (<20% degradation),A (>50% degradation),A (>50% degradation),CN(CCCCCOCCCc1cccc2c1C(=O)N(C1CCC(=O)NC1=O)C2=O)Cc1ccc(-n2cc(NC(=O)c3coc(-c4ccnc(NCC5CC5)c4)n3)c(C(N)=O)n2)cc1 (stereo not drawn) [I-312]
